Results as given in patent publication US12258327B2, “5-membered heteroaryl-containing aminopyridine compounds as EGFR inhibitors” (YUHAN CORPORATION, priority 2021, dated 2025).
Read-outs that look alike come from different tables or passages of the source.

Assays:
EGFR del19/T790M/C797S = EGFR del19/T790M/C797S (Homo sapiens, UniProt P00533, C797S/DEL746-750/T790M); assay: Biochemical EGFR kinase assay (Lance Ultra TR-FRET), triple mutant del19/T790M/C797S
In short: (§1)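 Enzyme reactions lasted 1 hour at room temperature with test compounds between 0.003 and 10 μM, followed by 10 mM EDTA quench.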

EGFR wildtype (WT) = EGFR wildtype (WT) (Homo sapiens, UniProt P00533); assay: Biochemical EGFR kinase assay (Lance Ultra TR-FRET), wildtype
In short: as §1

EGFR L858R/T790M/C797S = EGFR L858R/T790M/C797S (Homo sapiens, UniProt P00533, C797S/L858R/T790M); assay: Biochemical EGFR kinase assay (Lance Ultra TR-FRET), triple mutant L858R/T790M/C797S
In short: as §1

EGFR L858R/C797S = EGFR L858R/C797S (Homo sapiens, UniProt P00533, C797S/L858R); assay: Biochemical EGFR kinase assay (Lance Ultra TR-FRET), double mutant L858R/C797S
In short: as §1

EGFR del19/C797S = EGFR del19/C797S (Homo sapiens, UniProt P00533, C797S/DEL746-750); assay: Biochemical EGFR kinase assay (Lance Ultra TR-FRET), double mutant del19/C797S
In short: as §1

[1] = IC50 del19/T790M/C797S (nM) 100 μM ATP, 100 μM ATP
[2] = Km ATP, read-out: IC50 del19/T790M/C797S (nM) Km ATP
[3] = IC50 WT (nM) 100 μM ATP, 100 μM ATP
[4] = Km ATP, read-out: IC50 WT (nM) Km ATP
[5] = IC50 L858R/T790M/C797S (nM) 100 μM ATP, 100 μM ATP
[6] = Km ATP, read-out: IC50 L858R/T790M/C797S (nM) Km ATP
[7] = IC50 L858R/C797S (nM) 100 μM ATP, 100 μM ATP
[8] = Km ATP, read-out: IC50 L858R/C797S (nM) Km ATP
[9] = IC50 del19/C797S (nM) 100 μM ATP, 100 μM ATP
[10] = Km ATP, read-out: IC50 del19/C797S (nM) Km ATP

EGFR wildtype (WT), sequence (P00533 25-1210): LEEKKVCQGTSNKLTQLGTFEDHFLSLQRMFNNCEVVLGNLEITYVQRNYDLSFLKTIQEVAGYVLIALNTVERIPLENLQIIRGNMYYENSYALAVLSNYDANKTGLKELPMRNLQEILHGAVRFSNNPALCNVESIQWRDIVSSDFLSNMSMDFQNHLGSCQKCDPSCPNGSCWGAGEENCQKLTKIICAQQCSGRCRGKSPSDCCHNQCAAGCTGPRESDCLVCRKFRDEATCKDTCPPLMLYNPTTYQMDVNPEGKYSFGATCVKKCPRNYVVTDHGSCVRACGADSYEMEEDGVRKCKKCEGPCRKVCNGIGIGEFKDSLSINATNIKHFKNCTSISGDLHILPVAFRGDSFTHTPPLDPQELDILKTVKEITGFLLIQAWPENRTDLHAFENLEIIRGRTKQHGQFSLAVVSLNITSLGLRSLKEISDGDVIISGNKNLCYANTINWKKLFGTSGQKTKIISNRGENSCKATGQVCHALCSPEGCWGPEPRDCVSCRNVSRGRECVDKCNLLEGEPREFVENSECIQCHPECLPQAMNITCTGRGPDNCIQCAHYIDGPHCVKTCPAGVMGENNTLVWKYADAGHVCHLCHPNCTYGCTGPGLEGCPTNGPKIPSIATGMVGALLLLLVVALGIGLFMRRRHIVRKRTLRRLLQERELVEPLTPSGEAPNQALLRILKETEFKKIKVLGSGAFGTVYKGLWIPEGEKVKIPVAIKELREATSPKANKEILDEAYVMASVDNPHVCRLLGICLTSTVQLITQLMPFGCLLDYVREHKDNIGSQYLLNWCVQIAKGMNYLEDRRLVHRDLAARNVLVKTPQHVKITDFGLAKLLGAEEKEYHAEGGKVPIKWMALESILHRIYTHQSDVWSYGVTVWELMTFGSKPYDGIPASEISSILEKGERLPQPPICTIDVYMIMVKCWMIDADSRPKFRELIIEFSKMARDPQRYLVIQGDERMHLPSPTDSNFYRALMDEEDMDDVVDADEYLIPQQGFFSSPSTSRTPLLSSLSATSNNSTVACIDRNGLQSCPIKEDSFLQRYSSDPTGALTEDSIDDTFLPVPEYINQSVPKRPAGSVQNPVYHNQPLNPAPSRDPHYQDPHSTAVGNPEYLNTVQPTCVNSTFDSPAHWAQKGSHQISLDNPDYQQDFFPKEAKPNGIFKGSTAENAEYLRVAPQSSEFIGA
EGFR L858R/T790M/C797S, sequence (P00533 25-1210 T790M/C797S/L858R): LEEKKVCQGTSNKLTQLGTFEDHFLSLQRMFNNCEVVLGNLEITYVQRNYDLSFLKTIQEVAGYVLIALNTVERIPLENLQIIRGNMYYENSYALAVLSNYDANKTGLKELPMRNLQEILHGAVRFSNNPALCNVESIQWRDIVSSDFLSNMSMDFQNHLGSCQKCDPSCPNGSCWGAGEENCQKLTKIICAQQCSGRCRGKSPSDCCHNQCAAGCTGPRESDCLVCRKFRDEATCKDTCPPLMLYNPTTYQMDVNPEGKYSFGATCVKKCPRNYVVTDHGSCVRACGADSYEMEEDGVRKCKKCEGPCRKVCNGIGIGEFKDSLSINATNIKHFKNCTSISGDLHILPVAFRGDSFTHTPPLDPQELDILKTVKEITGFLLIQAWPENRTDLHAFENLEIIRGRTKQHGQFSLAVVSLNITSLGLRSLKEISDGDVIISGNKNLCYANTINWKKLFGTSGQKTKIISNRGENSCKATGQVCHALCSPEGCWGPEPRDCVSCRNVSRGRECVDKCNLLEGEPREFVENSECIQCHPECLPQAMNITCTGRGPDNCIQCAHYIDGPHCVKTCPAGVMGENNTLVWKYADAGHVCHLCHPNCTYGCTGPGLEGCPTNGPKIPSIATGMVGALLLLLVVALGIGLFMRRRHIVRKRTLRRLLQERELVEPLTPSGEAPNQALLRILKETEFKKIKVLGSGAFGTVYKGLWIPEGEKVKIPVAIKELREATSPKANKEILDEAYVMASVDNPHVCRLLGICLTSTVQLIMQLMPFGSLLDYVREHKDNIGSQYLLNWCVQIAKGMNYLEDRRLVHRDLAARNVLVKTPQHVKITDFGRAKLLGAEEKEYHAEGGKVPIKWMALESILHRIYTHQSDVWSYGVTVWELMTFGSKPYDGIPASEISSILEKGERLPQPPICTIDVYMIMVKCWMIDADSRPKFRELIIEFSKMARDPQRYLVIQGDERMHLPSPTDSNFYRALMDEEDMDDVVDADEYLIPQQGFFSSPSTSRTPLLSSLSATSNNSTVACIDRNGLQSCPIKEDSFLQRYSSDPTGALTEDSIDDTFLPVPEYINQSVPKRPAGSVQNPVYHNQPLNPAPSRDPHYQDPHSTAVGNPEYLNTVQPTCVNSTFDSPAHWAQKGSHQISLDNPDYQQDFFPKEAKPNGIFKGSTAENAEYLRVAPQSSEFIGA
EGFR del19/T790M/C797S, sequence (P00533 with tags, fused parts or gaps DEL746-750/T790M/C797S): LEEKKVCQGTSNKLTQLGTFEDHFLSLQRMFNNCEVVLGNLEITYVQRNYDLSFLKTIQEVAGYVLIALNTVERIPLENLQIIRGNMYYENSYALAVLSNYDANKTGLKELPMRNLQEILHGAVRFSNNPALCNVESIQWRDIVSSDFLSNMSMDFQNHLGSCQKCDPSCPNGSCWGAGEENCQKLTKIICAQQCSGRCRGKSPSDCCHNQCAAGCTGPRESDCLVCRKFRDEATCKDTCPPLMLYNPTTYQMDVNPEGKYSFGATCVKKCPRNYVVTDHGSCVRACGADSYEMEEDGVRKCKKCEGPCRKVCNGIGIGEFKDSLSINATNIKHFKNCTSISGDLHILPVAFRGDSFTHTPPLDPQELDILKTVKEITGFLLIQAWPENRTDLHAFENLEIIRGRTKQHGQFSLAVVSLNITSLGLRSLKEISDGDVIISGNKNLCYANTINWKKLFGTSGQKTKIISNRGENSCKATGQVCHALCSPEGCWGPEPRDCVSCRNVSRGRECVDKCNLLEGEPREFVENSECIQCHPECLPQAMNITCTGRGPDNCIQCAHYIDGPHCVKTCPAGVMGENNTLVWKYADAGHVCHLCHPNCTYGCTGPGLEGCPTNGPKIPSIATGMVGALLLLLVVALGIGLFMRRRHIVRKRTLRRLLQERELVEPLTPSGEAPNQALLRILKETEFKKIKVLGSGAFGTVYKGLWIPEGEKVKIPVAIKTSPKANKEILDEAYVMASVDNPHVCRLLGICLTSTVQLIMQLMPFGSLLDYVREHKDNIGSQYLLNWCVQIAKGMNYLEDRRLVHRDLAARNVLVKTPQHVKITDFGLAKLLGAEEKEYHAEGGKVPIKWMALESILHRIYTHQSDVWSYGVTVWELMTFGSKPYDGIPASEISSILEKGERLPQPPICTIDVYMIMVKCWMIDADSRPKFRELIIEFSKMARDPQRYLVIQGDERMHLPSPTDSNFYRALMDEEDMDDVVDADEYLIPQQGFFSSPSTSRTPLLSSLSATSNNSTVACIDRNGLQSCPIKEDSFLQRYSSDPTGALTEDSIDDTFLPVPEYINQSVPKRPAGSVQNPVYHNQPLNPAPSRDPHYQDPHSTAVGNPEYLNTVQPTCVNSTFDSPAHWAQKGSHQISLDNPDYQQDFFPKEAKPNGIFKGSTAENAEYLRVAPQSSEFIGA
EGFR L858R/C797S, sequence (P00533 25-1210 C797S/L858R): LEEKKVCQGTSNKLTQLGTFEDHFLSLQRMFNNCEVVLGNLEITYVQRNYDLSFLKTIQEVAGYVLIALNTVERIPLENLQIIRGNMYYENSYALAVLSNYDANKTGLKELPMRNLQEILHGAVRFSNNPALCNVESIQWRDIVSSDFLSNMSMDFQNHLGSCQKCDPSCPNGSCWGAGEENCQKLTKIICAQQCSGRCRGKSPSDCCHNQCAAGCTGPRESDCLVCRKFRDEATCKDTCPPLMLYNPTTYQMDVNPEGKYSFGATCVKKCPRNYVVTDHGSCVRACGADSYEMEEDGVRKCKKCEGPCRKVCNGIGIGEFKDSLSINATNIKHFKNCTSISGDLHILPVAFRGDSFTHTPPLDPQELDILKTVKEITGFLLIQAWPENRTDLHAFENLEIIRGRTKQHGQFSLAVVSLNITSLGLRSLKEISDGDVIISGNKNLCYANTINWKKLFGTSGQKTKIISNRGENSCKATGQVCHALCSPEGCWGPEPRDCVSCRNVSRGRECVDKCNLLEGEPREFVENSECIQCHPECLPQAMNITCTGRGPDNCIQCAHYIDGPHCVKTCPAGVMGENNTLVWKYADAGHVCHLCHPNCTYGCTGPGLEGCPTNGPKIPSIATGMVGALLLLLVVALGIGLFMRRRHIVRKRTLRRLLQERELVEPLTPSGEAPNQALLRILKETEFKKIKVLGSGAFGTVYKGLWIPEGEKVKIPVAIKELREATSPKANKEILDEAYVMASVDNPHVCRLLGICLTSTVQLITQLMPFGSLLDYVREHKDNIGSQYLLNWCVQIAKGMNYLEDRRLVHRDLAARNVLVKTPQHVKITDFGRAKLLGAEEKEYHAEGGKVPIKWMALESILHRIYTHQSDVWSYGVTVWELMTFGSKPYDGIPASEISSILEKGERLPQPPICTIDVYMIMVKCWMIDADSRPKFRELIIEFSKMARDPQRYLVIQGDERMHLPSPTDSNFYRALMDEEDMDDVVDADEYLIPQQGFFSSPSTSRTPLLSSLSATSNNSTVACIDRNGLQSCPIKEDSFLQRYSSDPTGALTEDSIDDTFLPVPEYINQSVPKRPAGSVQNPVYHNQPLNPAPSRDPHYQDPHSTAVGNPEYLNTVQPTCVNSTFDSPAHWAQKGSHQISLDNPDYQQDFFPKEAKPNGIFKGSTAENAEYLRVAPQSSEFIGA

Structure (SMILES)	IC50 (EGFR del19/T790M/C797S; [1]) [nM]	IC50 (EGFR del19/T790M/C797S; [2]) [nM]	IC50 (EGFR wildtype (WT); [3]) [nM]	IC50 (EGFR wildtype (WT); [4]) [nM]	IC50 (EGFR L858R/T790M/C797S; [5]) [nM]	IC50 (EGFR L858R/T790M/C797S; [6]) [nM]	IC50 (EGFR L858R/C797S; [7]) [nM]	IC50 (EGFR L858R/C797S; [8]) [nM]	IC50 (EGFR del19/C797S; [9]) [nM]	IC50 (EGFR del19/C797S; [10]) [nM]
Cn1nc(-c2cnc(Nc3ccnc(-c4cnn(S(=O)(=O)C5CC5)c4)n3)cc2N[C@H]2CC[C@@H](NCCF)CC2)cc1C(F)(F)F [Example 255, N^2-(2-(1-(Cyclopropylsulfonyl)-1H-pyrazol-4-yl)pyrimidin-4-yl)-N^4-((1s,4s)-4-((2-fluoroethyl)amino)cyclohexyl)-5-(1-methyl-5-(trifluoromethyl)-1H-pyrazol-3-yl)pyridine-2,4-diamine]	0.8	0.6	> 10000	8.2	1.2	0.2	25.4	5.3	2.4	1.1
CN(C)C[C@H]1CC[C@@H](Nc2cc(Nc3ccnc(-c4cnn(S(=O)(=O)C5CC5)c4)n3)ncc2-c2cc(C(F)(F)F)n(C)n2)CC1 [Example 256, N^2-(2-(1-(Cyclopropylsulfonyl)-1H-pyrazol-4-yl)pyrimidin-4-yl)-N^4-((1s,4s)-4-((dimethylamino)methyl)cyclohexyl)-5-(1-methyl-5-(trifluoromethyl)-1H-pyrazol-3-yl)pyridine-2,4-diamine]	–	1.4	123	0.5	0.5	0.4	7.5	–	2	0.8
CN(C)C(=O)[C@H]1CC[C@@H](Nc2cc(Nc3ccnc(-c4cnn(S(=O)(=O)C5CC5)c4)n3)ncc2-c2cc(C(F)(F)F)n(C)n2)CC1 [Example 257, (1s,4s)-4-((2-((2-(1-(Cyclopropylsulfonyl)-1H-pyrazol-4-yl)pyrimidin-4-yl)amino)-5-(1-methyl-5-(trifluoromethyl)-1H-pyrazol-3-yl)pyridin-4-yl)amino)-N,N-dimethylcyclohexane-1-carboxamide]	3.7	4.3	294	7.5	1.6	1.1	29.1	5.2	6	2.1
CN(CC(F)F)C[C@H]1CC[C@@H](Nc2cc(Nc3ccnc(-c4cnn(S(=O)(=O)C5CC5)c4)n3)ncc2-c2cc(C(F)(F)F)n(C)n2)CC1 [Example 259, N^2-(2-(1-(Cyclopropylsulfonyl)-1H-pyrazol-4-yl)pyrimidin-4-yl)-N^4-((1s,4s)-4-(((2,2-difluoroethyl)(methyl)amino)methyl)cyclohexyl)-5-(1-methyl-5-(trifluoromethyl)-1H-pyrazol-3-yl)pyridine-2,4-diamine]	172	–	> 10000	–	63.9	–	819	–	151	–
Cn1nc(-c2cnc(Nc3ccnc(-c4cnn(S(=O)(=O)C5CC5)c4)n3)cc2N[C@H]2CCC[C@H](CO)C2)cc1C(F)(F)F [Example 260, ((1S,3S)-3-((2-((2-(1-(Cyclopropylsulfonyl)-1H-pyrazol-4-yl)pyrimidin-4-yl)amino)-5-(1-methyl-5-(trifluoromethyl)-1H-pyrazol-3-yl)pyridin-4-yl)amino)cyclohexyl)methanol]	9.8	8.6	5230	27.1	4.3	3.8	59.9	2.7	8.7	5
Cn1nc(-c2cnc(Nc3ccnc(-c4cnn(S(=O)(=O)C5CC5)c4)n3)cc2NC[C@H]2CC[C@@H](O)C2)cc1C(F)(F)F [Example 261, (1R,3S)-3-(((2-((2-(1-(Cyclopropylsulfonyl)-1H-pyrazol-4-yl)pyrimidin-4-yl)amino)-5-(1-methyl-5-(trifluoromethyl)-1H-pyrazol-3-yl)pyridin-4-yl)amino)methyl)cyclopentan-1-ol]	1.2	0.1	> 10000	6.4	1.4	0.8	22.7	5.6	77.9	5.8
Cn1nc(-c2cnc(Nc3ccnc(-c4cnn(S(=O)(=O)C5CC5)c4)n3)cc2N[C@H]2CC[C@@H](CCO)CC2)cc1C(F)(F)F [Example 262, 2-((1s,4s)-4-((2-((2-(1-(Cyclopropylsulfonyl)-1H-pyrazol-4-yl)pyrimidin-4-yl)amino)-5-(1-methyl-5-(trifluoromethyl)-1H-pyrazol-3-yl)pyridin-4-yl)amino)cyclohexyl)ethan-1-ol]	6.6	0.1	1880	8.4	7.3	2.1	5.3	5.7	33.4	4.5
Cn1nc(-c2cnc(Nc3ccnc(-c4cnn(S(=O)(=O)C5CC5)c4)n3)cc2N[C@H]2CC[C@H](CCO)CC2)cc1C(F)(F)F [Example 263, 2-((1r,4r)-4-((2-((2-(1-(Cyclopropylsulfonyl)-1H-pyrazol-4-yl)pyrimidin-4-yl)amino)-5-(1-methyl-5-(trifluoromethyl)-1H-pyrazol-3-yl)pyridin-4-yl)amino)cyclohexyl)ethan-1-ol]	9.9	0.3	> 10000	54.5	11.5	2.6	32.5	6.3	237	15.5
Cn1nc(-c2cnc(Nc3ccnc(-c4cnn(S(=O)(=O)C5CC5)c4)n3)cc2N[C@H]2CC[C@@H](CN3CCC3)CC2)cc1C(F)(F)F [Example 264, N^4-((1s,4s)-4-(Azetidin-1-ylmethyl)cyclohexyl)-N^2-(2-(1-(cyclopropylsulfonyl)-1H-pyrazol-4-yl)pyrimidin-4-yl)-5-(1-methyl-5-(trifluoromethyl)-1H-pyrazol-3-yl)pyridine-2,4-diamine]	1.4	1.7	244	–	0.6	0.4	2.2	0.4	0.9	0.8
CC(C)(O)[C@H]1CC[C@@H](Nc2cc(Nc3ccnc(-c4cnn(S(=O)(=O)C5CC5)c4)n3)ncc2-c2ccn(CC(F)(F)F)n2)CC1 [Example 265, 2-((1s,4s)-4-((2-((2-(1-(Cyclopropylsulfonyl)-1H-pyrazol-4-yl)pyrimidin-4-yl)amino)-5-(1-(2,2,2-trifluoroethyl)-1H-pyrazol-3-yl)pyridin-4-yl)amino)cyclohexyl)propan-2-ol]	5.4	–	> 10000	86.8	7.4	–	187	6.6	12.2	11.8
CN(C)C[C@H]1CC[C@@H](Nc2cc(Nc3ccnc(-c4cnn(S(=O)(=O)C5CC5)c4)n3)ncc2-c2ccn(CC(F)(F)F)n2)CC1 [Example 266, N^2-(2-(1-(Cyclopropylsulfonyl)-1H-pyrazol-4-yl)pyrimidin-4-yl)-N^4-((1s,4s)-4-((dimethylamino)methyl)cyclohexyl)-5-(1-(2,2,2-trifluoroethyl)-1H-pyrazol-3-yl)pyridine-2,4-diamine]	0.1	–	206	–	0.1	–	0.9	–	0.3	–
CN(C)CC1(C)CCC(Nc2cc(Nc3ccnc(-c4cnn(S(=O)(=O)C5CC5)c4)n3)ncc2-c2ccn(CC(F)(F)F)n2)CC1 (stereo not shown) [Example 267, N^2-(2-(1-(Cyclopropylsulfonyl)-1H-pyrazol-4-yl)pyrimidin-4-yl)-N^4-(4-((dimethylamino)methyl)-4-methylcyclohexyl)-5-(1-(2,2,2-trifluoroethyl)-1H-pyrazol-3-yl)pyridine-2,4-diamine]	0.1	0.2	8270	28.7	0.1	0.5	576	25.4	8.8	6.7
O=S(=O)(C1CC1)n1cc(-c2nccc(Nc3cc(NC[C@H]4CC[C@@H](O)C4)c(-c4ccn(CC(F)(F)F)n4)cn3)n2)cn1 [Example 268, (1R,3S)-3-(((2-((2-(1-(Cyclopropylsulfonyl)-1H-pyrazol-4-yl)pyrimidin-4-yl)amino)-5-(1-(2,2,2-trifluoroethyl)-1H-pyrazol-3-yl)pyridin-4-yl)amino)methyl)cyclopentan-1-ol]	0.6	2.5	> 10000	74.4	0.6	0.3	10.7	3.2	200	7.6
